US20230129723A1, “EN[…] OF 3,4-METHYLENEDIOXYMETHAMPHETAMINE AND RELATED METABOLITES AND USES THEREOF” (ATAI Life Sciences AG, priority 2021, published 2023)

Key:
[1] = tested on: rat embryonic cortical neuron cultures; test: Neurite outgrowth in primary rat embryonic cortical neuron cultures, single test articles (Example 1); assay type: cell-based; settings: 3 days treatment, compared to 0.1% sterile water vehicle control
Source text: Primary rat cortical neuron experimental methods: Female Wistar rats of 17 days gestation were killed by cervical dislocation and the fetuses (typically 6 to 8 in number) were removed from the uterus. Fetal brains were placed in ice-cold medium of Leibovitz (L15, Gibco, France). Cortex was dissected and meninges were carefully removed. The cortical neurons were dissociated by trypsinization (trypsin-EDTA, Gibco) in the presence of DNAse I (Roche, France). The reaction was stopped by addition of Dulbecco's Modified Eagle Medium (DMEM; Gibco) with 10% of fetal bovine serum (FBS; Gibco). The suspension was triturated with a 10-ml pipette and a 21-gauge needle syringe and centrifuged. The pellet of dissociated cells was resuspended in a medium consisting of Neurobasal (Gibco) supplemented with 2% B27 supplement (Gibco), 0.5 mM L-Glutamine (Gibco), and an antibiotic-antimycotic mixture. Viable cells were counted in a Neubauer cytometer and cells were seeded in 96-well plates (Costar) precoated with poly-L-lysine at 10,000 cells/well.
Stock solutions were prepared in sterile water at 10 mM, and stored at −20° C. until use. Further dilution will be performed in culture in the medium on the day of the treatment. 0.1% Sterile water will be present in all tested conditions. The following conditions were tested: 1) Racemic MDMA (10000, 1000, 100, 10, 1, 0.1, 0.01, 0.001 nM), 2) S(+)-MDMA (10000, 1000, 100, 10, 1, 0.1, 0.01, 0.001 nM), 3) R(−)-MDMA (10000, 1000, 100, 10, 1, 0.1, 0.01, 0.001 nM), 4) Racemic MDA (10000, 1000, 100, 10, 1, 0.1, 0.01, 0.001 nM), 5) S(+)-MDA (10000, 1000, 100, 10, 1, 0.1, 0.01, 0.001 nM), and 6) R(−)-MDA (10000, 1000, 100, 10, 1, 0.1, 0.01, 0.001 nM).
The experimental protocol was performed in 2 independent cultures (i.e., from 2 different pregnant rats). For each culture, each condition was tested in sextuplet (6 wells per condition per culture for a total of 12 wells per condition). […] After three days of plating and compound treatment (Day3), cultures were fixed with paraformaldehyde in phosphate buffered saline at 4° C. (PBS, 4%, Sigma). Then, all subsequent steps were performed at room temperature.
Cells were successively permeabilized for 30 minutes using 0.1% triton, saturated with PBS containing 3% bovine serum albumin (BSA) and incubated for 1 hour with anti-beta III tubulin antibody (T5168, Sigma). Cells were first washed 3 times and then were incubated for 1 hour with goat anti-mouse secondary antibody coupled with Alexa Fluor 488 (AF488, Invitrogen A11001). Finally, nuclei were stained with 4′-6-diamidino-2-phenylindole (DAPI). After rinsing the cells with PBS, the plate was imaged and neurite networks were examined and analyzed using a High-Content Screening platform (CellInsight CX5, Thermo Scientific) with integrated Photometrics high-resolution fluorescent camera, Olympus objective (10×) and HCS Studio Cell Analysis Software.
Approximately 2,000 neurons per well were analyzed using a validated cortex neuron outgrowth algorithm that utilizes parameters optimized for analysis of embryonic rat cortical neuron cultures. The HCS Studio Cell Analysis Software output will include values for neurite number total count, neurite total length (μm) and total number of branch points for each of the 6 wells per culture. The evaluation of neurite outgrowth was performed using the average number of neurites per neuron, the average total neurite length per neuron (μm) and the average number of branch points per neuron across 12 wells. Data also were transformed to percent (%) of the average vehicle control value. Results were expressed as mean (±s.e.m.) of the transformed (% of vehicle control) data. Statistical analyses were performed on transformed percent of the average vehicle control data for each measure for each test article using one-way analysis of variance (Anova, StatView or GraphPad Prism). Where applicable, Dunnett's test was used for multiple pairwise comparisons to the negative control (vehicle) condition. […]

[2] = tested on: rat embryonic cortical neuron cultures; test: Neurite outgrowth in primary rat embryonic cortical neuron cultures, racemic and non-racemic R(−)/S(+)-MDMA mixtures (Example 2); assay type: cell-based; settings: concentrations of R(−)- and S(+)-MDMA as in the label (alone: 10 uM), 3 days treatment, compared to vehicle control, Anova/Dunnett p<0.05
Source text: Primary rat cortical neuron experimental methods: Female Wistar rats of 17 days gestation are killed by cervical dislocation and the fetuses (typically 6 to 8 in number) are removed from the uterus. Their brains are placed in ice-cold medium of Leibovitz (L15, Gibco, France). Cortex is dissected and meninges are carefully removed. The cortical neurons are dissociated by trypsinization (trypsin-EDTA, Gibco) in presence of DNAse I (Roche, France). The reaction is stopped by addition of Dulbecco's Modified Eagle Medium (DMEM; Gibco) with 10% of fetal bovine serum (FBS; Gibco). The suspension is triturated with a 10-ml pipette and using a needle syringe 21G and centrifuged. The pellet of dissociated cells is resuspended in a medium consisting of Neurobasal (Gibco) supplemented with 2% B27 supplement (Gibco), 0.5 mM L-Glutamine (Gibco), an antibiotic-antimycotic mixture. Viable cells are counted in a Neubauer cytometer and cells are seeded in 96-well plate (Costar) precoated with poly-L-lysine at 10 000cells/well.
The protocol is performed in either 1 or 2 independent cultures (i.e., from 1 or 2 different pregnant rats). For each culture, each condition is performed in sextuplet (6 wells per condition per culture from 1 rat, or a total of 12 wells per condition when 2 rats/cultures are used).
Cells are treated with the test compounds R(−)-MDMA and S(+)-MDMA as described in the following Tables below.
After three days of plating and test compound treatment (Day3), cultures are fixed with paraformaldehyde in phosphate buffered saline at 4° C. (PBS, 4%, Sigma). Then all steps will be performed at room temperature. Cells are successively permeabilized 30 min using 0.1% triton, saturated with PBS containing 3% bovine serum albumin (BSA) and incubated 1 h with anti-beta III tubulin antibody (T5168, Sigma). Cells are first washed 3 times and are then incubated 1 h with goat anti-mouse secondary antibody coupled with Alexa Fluor 488 (AF488, Invitrogen A11001). Finally, nuclei are stained with 4′-6-diamidino-2-phenylindole (DAPI). After rinsing the cells with PBS, the plate is filmed and neurite networks are examined and analyzed using a High-Content Screening platform (CellInsight CX5, Thermo Scientific) with integrated Photometrics high-resolution fluorescent camera, Olympus objective (10×) and HCS Studio Cell Analysis Software.
Approximately 2000 neurons per well were analyzed using a validated Cortex Neuron Outgrowth algorithm established by Neurofit that utilizes parameters optimized for analysis of embryonic rat cortical neuron cultures. The HCS Studio Cell Analysis Software output will include values for neurite total count number, neurite total length (μm) and total number of branch points for each of the 6 wells per culture. The evaluation of neurite outgrowth was performed using the average number of neurites per neuron, the average of total neurite length per neuron (μm) and the average number of branchpoint per neuron across 6 wells of each culture (6 wells total (1 rat used) or 12 wells total (2 rats used). Data were transformed to % of the average vehicle control value.

[3] = at any tested concentration (0.001-10000 nM)

Structure (SMILES) | neurite number ([1]; at 10 μM, Anova/Dunnett p<0.05) | neurite total length (μm) ([1]; at 10 μM, Anova/Dunnett p<0.05) | total number of branch points ([1]; at 10 μM, Anova/Dunnett p<0.05) | neurite number [1, 3] | neurite total length (μm) [1, 3] | total number of branch points [1, 3] | average number of branchpoints per neuron [2] | average number of neurites per neuron [2] | average total neurite length per neuron [2] | neurite number ([1]; at 0.0001 μM)
CNC(C)Cc1ccc2c(c1)OCO2 (racemic) [Racemic R,S(+/−)-MDMA, 3,4-Methylenedioxymethamphetamine] | significantly increased | significantly increased | significantly increased |  |  |  |  |  |  | 
CC(N)Cc1ccc2c(c1)OCO2 (racemic) [racemic R,S(+/−)-MDA, 3,4-methylenedioxyamphetamine, reference compound] |  |  |  | did not significantly alter | did not significantly alter | did not significantly alter |  |  |  | 
C[C@@H](N)Cc1ccc2c(c1)OCO2 [R(−)-MDA] |  |  |  | did not significantly alter | did not significantly alter | did not significantly alter |  |  |  | 
CN[C@H](C)Cc1ccc2c(c1)OCO2 [R(−)-MDMA, (R)-3,4-methylenedioxymethamphetamine] | significantly increased | significantly increased | significantly increased |  |  |  | did not have significant effects | did not have significant effects | significantly induced | significantly increased
C[C@H](N)Cc1ccc2c(c1)OCO2 [S(+)-MDA] |  |  |  | did not significantly alter | did not significantly alter | did not significantly alter |  |  |  | 
CN[C@@H](C)Cc1ccc2c(c1)OCO2 [S(+)-MDMA] |  |  |  | did not significantly alter | did not significantly alter | did not significantly alter | did not significantly induce | did not significantly induce | did not significantly induce | 
